From patent US20060122267A1, “Compositions and methods for attenuating mitochondria-mediated cell injury” (priority 2003, published 2006) come the findings set out here.

Experiment [1] concerns the target T1, 75 kDa subunit of complex I (Rattus norvegicus, UniProt Q66HF1).
T1 construct: Mitochondrial protein (3 mg) was extracted in 300 μL of column running buffer; from tissue; host or cells: rat heart mitochondria, SUPEROSE 6 column fraction enriched in complex I
As to the kind of experiment: SUPEROSE 6 chromatography S-nitrosothiol profile with biotin switch identification of S-nitrosated peptide. The format is biochemical. The conditions noted are these: S-nitrosoglutathione-treated mitochondria. The source says:
To simplify separation of complex I, SUPEROSE™ 6 gel filtration chromatography was employed as a liquid phase high-throughput separation method (Danial, et al. (2003) Nature 424:952-6). Chemiluminescent analysis of column fractions was then used to construct an S-nitrosothiol profile. Most S-nitrosothiol concentrated in two regions of the chromatogram, eluting at ˜35% and 85% of the column bed volume.
The fraction with most S-nitrosothiol content was enriched in complex I activity, and was then further analyzed by biotin switch assay to identify S-nitrosated peptides (i.e., which of the 46 subunits in complex I was S-nitrosated). […]
A 25 cm×1 cm BIO-RAD® glass ECONO-COLUMN™ was used, with appropriate flow adaptor (BIO-RAD®, Hercules Calif.) and a MASTERFLEX™ peristaltic pump (Cole Parmer, Vernon Hills, Ill.). […] Fractions (200 μL) were collected, and their A280 measured to determine relative protein content. In addition, the S-nitrosothiol content and complex I activity of each fraction were analyzed as disclosed herein. […] Therefore, for data comparison the relative position of eluted column fractions was expressed as a percentage of the total column bed volume. […]
For biotin-switch analysis, intact mitochondrial pellets (1 mg protein solubilized in extraction buffer) or chromatography column fractions were analyzed in accordance with known methods (Jaffrey & Snyder (2001) supra). […]

The test system of the next experiment is rat heart mitochondria. As to the kind of experiment: Chemiluminescent NO analysis of total S-nitrosothiol in treated mitochondria. The format is biochemical. The procedure:
At concentrations above 250 μM, secondary reactions such as free S-nitrosothiol or NO2^− formation were observed.
(§1) Rat heart mitochondria were isolated using differential centrifugation (Tompkins, et al. (2005) Biochim. Biophys. Acta PMID: 16278076). Protein was determined by the Folin-phenol method (Lowry, et al. (1951) J. Bio. Chem. 193:265-75) against a standard curve constructed using bovine serum albumin. Mitochondrial incubations and all subsequent steps were performed in the dark. One mg of mitochondrial protein was suspended in 1 mL of mitochondrial respiration buffer (Tompkins, et al. (2005) supra) containing respiratory substrates glutamate (5 mM), malate (2.5 mM) and succinate (5 mM). […] Samples were centrifuged (5 minutes, 14,000×g), and supernatants removed. The pellets were then resuspended in 1 mL of respiration buffer, and centrifuged again. Pellets were frozen in liquid N2 for subsequent analysis. For ONOO^− treatments, 4 μL of 25 mM ONOO^− stock (100 μM final concentration) was added the cap of the reaction tube, the cap quickly closed and the tube shaken immediately. The process was then repeated twice at 30 second intervals, for a total of 3 additions. Mitochondria were then pelleted, washed, and frozen as for S-nitrosoglutathione samples. Complex I activity was assayed as the rotenone-sensitive oxidation of NADH, at 340 nm in the presence of coenzyme Q1 (Borutaite, et al. (2000) supra). Complex IV was assayed by monitoring the cyanide-sensitive first-order oxidation of reduced cytochrome c, at 550 nm according to established methods (Cleeter, et al. (1994) supra).
Chemiluminescent analysis of S-nitrosothiol content was performed on samples originating from blue-native gels, intact mitochondria and SUPEROSE™ 6 chromatography fractions, according to known methodologies (Yang, et al. (2003) Free Radic. Res. 37:1-10). […] Each sample was run in duplicate and quantified using a standard curve created with known concentrations of NaNO2.

A further experiment concerns mitochondrial proteins. As to the kind of experiment: Biotin-switch analysis of mitochondrial protein S-nitrosation. The class given is biochemical, rat. The procedure:
as §1
For biotin-switch analysis, intact mitochondrial pellets (1 mg protein solubilized in extraction buffer) or chromatography column fractions were analyzed in accordance with known methods (Jaffrey & Snyder (2001) supra). Samples were separated in duplicate on non-reducing SDS-PAGE gels; half the gel was stained with COOMASSIE® blue, and the other half blotted and probed with streptavidin-HRP and ECL™ detection (GE biosciences). Blots and stained gels were aligned, and S-nitrosated proteins excised, trypsinized, and identified by peptide mass fingerprinting. Mass spectra (MALDI-TOF) were analyzed using the MASCOT™ algorithm available on the world-wide web at matrixscience.com.

T1 sequence (Q66HF1 24-727, one chain of several): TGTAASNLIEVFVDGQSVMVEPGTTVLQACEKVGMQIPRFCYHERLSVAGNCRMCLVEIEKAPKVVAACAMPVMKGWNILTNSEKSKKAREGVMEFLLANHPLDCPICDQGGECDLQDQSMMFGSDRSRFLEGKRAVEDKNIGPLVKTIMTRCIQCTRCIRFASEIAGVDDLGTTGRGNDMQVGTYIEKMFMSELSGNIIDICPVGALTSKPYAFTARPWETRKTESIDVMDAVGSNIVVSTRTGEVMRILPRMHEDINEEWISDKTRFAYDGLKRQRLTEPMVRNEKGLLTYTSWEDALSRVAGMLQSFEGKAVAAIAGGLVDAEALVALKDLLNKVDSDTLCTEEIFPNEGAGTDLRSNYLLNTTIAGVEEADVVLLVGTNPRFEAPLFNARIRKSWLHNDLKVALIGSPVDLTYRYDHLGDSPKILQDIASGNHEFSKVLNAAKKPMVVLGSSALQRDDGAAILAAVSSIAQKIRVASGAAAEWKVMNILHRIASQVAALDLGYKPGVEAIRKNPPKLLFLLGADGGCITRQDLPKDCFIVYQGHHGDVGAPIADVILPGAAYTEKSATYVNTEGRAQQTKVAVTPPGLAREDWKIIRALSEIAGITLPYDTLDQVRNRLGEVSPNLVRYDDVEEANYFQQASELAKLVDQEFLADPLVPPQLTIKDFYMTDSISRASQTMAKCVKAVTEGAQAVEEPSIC

As to `N[C@@H](CCC(=O)N[C@@H](CSN=O)C(=O)NCC(=O)O)C(=O)O` [S-nitrosoglutathione], the “share of total protein-bound S-nitrosothiol contained in the 75 kDa subunit of complex I” value in experiment [1] was ~20%. For the same compound, the “concentration above which secondary reactions (free S-nitrosothiol or NO2- formation) were observed” value with rat heart mitochondria is reported as “above 250 μM”. Moreover, the “total S-nitrosothiol” value in the experiment on rat heart mitochondria (100 μM treatment) was ~1700 pmol/mg mitochondrial protein. Moreover, in the experiment with rat heart mitochondria (range 10 μM to 1 mM), the “concentration approaching saturation of total S-nitrosothiol (free plus protein-bound)” value was ~300 µM. For the same compound, in the experiment with mitochondrial proteins (S-nitrosoglutathione 1 mM, DETA-NONOate 2 mM, ONOO- 3 additions of 100 μM, 37° C., 40 minutes), the “S-nitrosation of entire mitochondrial protein extract, comparison of NO donors” value is recorded as “far more S-nitrosation than DETA-NONOate or ONOO^−”. In addition, the “concentration at which formation of protein bound S-nitrosothiol saturates” value with mitochondrial proteins (biotin-switch and chemiluminescent data together) was ~250 µM. The “concentration at which plateau of mitochondrial protein S-nitrosation is reached” value in the experiment with mitochondrial proteins (dose response over 50-250 μM) is ~200 µM.
